Measurements: patent publication US11066414B2, “Cot modulators and methods of use thereof” (Gilead Sciences, Inc., priority 2015, dated 2021)
Like-named read-outs stand apart in the source and are kept apart here.

Tests used:
TNFα = test: Cot Monocyte TNFα Cell Based Assay
Human Cot = Human Cot (Homo sapiens (Human), UniProt P41279); test: High Throughput Cot Biochemical Assay; conditions: Cot HTRF (TR-FRET KinEASE) biochemical assay, 400 μM ATP
[1] = read-out: EC50 TNF, LPS-stimulated human monocytes, TNFα TR-FRET
[2] = Homo sapiens, Monocyte, read-out: EC50 TNF, LPS-stimulated human monocytes, TNFα TR-FRET

Chain of Human Cot (P41279 30-397): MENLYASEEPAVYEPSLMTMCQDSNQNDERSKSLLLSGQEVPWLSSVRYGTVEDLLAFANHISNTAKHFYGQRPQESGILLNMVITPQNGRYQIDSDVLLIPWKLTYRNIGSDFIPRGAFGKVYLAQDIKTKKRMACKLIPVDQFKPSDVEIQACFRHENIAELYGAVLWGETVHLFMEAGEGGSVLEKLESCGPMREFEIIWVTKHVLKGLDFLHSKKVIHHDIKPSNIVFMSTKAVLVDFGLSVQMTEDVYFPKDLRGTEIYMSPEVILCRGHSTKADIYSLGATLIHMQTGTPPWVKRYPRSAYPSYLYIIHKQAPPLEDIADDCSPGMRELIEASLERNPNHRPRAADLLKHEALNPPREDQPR

Row | Compound | EC50 (TNFα; [1]) [nM] | IC50 (Human Cot; read-out: IC50 HTRF) [nM] | EC50 (TNFα; [2]) [nM] | IC50 (Human Cot; IC50 HTRF) [nM]
1 | Cn1ccc2c([C@H](Nc3cc(Cl)c4ncc(C#N)c(NCC(C)(C)C)c4c3)c3cn(C4(C)CCC4)nn3)cccc2c1=O [Example 800, (S)-8-chloro-6-(((2-methyl-1-oxo-1,2-dihydroiso-quinolin-5-yl)(1-(1-methylcyclobutyl)-1H-1,2,3-triazol-4-yl)methyl)amino)-4-(neopentylamino)quinoline-3-carbonitrile] | 25 | 2 |  | 
2 | CCC(C)n1cc([C@@H](Nc2cc(Cl)c3ncc(C#N)c(NCC(C)(C)C)c3c2)c2cccc3c(=O)n(C)ccc23)nn1 (stereo partly shown) [Example 801, 6-(((1 S)-(1-(sec-butyl)-1H-1,2,3-triazol-4-yl)(2-methyl-1-oxo-1,2-dihydroisoquinolin-5-yl)methyl)amino)-8-chloro-4-(neopentylamino)quinoline-3-carbonitrile] |  |  | 31 | 3
3 | COC[C@H](C)n1cc([C@@H](Nc2cc(Cl)c3ncc(C#N)c(NCC(C)(C)C)c3c2)c2cccc3c(=O)n(C)ccc23)nn1 [Example 802, 8-chloro-6-(((S)-(1-((S)-1-methoxypropan-2-yl)-1H-1,2,3-triazol-4-yl)(2-methyl-1-oxo-1,2-dihydroisoquinolin-5-yl)methyl)amino)-4-(neopentylamino)quinoline-3-carbonitrile] |  |  | 36 | 4
4 | CC(C)(C)CNc1c(C#N)cnc2c(Cl)cc(N[C@H](c3cn(C(CF)CF)nn3)c3cccc4ncccc34)cc12 [Example 804, (S)-8-chloro-6-(((1-(1,3-difluoropropan-2-yl)-1H-1,2,3-triazol-4-yl)(quinolin-5-yl)methyl)amino)-4-(neopentylamino)quinoline-3-carbonitrile] |  |  | 137 | 9
5 | COc1nccc2c([C@H](Nc3cc(C#N)c4ncc(C#N)c(NCC(C)(C)C)c4c3)c3cn(C45CC(C4)C5)nn3)cccc12 [Example 807, (S)-6-(((1-(bicyclo[1.1.1]pentan-1-yl)-1H-1,2,3-triazol-4-yl)(1-methoxylsoquinolin-5-yl)methyl)amino)-4-(neopentylamino)quinoline-3,8-dicarbonitrile] | 31 | 3 |  | 
6 | COc1nccc2c([C@H](Nc3cc(C#N)c4ncc(C#N)c(NCC(C)(C)C)c4c3)c3cn(C4CC4)nn3)cccc12 [Example 808, (S)-6-(((1-cyclopropyl-1H-1,2,3-triazol-4-yl)(1-methoxylsoquinolin-5-yl)methyl)airiino)-4-(neopentylamino)quinoline-3,8-dicarbonitrile] | 29 | 3 |  | 
7 | COc1ccc2c([C@H](Nc3cc(C#N)c4ncc(C#N)c(NCC(C)(C)C)c4c3)c3cn(C4(C(F)(F)F)CC4)nn3)cccc2n1 [Example 811, (S)-6-(((2-methoxyquinolin-5-yl)(1-(1-(trifluoromethyl)cyclopropyl)-1H-1,2,3-triazol-4-yl)methyl)amino)-4-(neopentylamino)quinoline-3,8-dicarbonitrile] |  |  | 333 | 11
8 | CC1(n2cc([C@@H](Nc3cc(C#N)c4ncc(C#N)c(NCC(C)(C)C(F)(F)F)c4c3)c3ccc(F)c4ncccc34)nn2)CC1 [Example 813, (S)-6-(((8-fluoroquinolin-5-yl)(1-(1-methylcyclopropyl)-1H-1,2,3-triazol-4-yl)methyl)amino)-4-((3,3,3-trifluoro-2,2-dimethylpropyl)amino)quinoline-3,8-dicarbonitrile] |  |  | 24 | 2
9 | CC(C)(C)CNc1c(C#N)cnc2c(C#N)cc(N[C@@H](c3ccc4cccnc4c3)c3cn(C4(C(F)F)CC4)nn3)cc12 [Example 818, (S)-6-(((1-(1-(difluoromethyl)-cyclopropyl)-1H-1,2,3-triazol-4-yl)(quinolin-7-yl)methyl)amino)-4-(neopentylamino)quinoline-3,8-dicarbonitrile] |  |  | 176 | 6
10 | COc1nccc2c([C@H](Nc3cc(C#N)c4ncc(C#N)c(NCC(C)(C)C(F)(F)F)c4c3)c3cn(C45CC(C4)C5)nn3)cccc12 [Example 820, (S)-6-(((1-(bicyclo[1.1.1]pentan-1-yl)-1H-1,2,3-triazol-4-yl)(1-methoxylsoquinolin-5-yl)methyl)amino)-4-((3,3,3-trifluoro-2,2-dimethylpropyl)amino)quinoline-3,8-dicarbonitrile] | 33 | 3 |  | 
11 | COc1nccc2c([C@H](Nc3cc(C#N)c4ncc(C#N)c(NCC(C)(C)C)c4c3)c3cn(C(CF)CF)nn3)cccc12 [Example 825, (S)-6-(((1-(1,3-difluoropropan-2-yl)-1H-1,2,3-triazol-4-yl)(1-methoxylsoquinolin-5-yl)methyl)amino)-4-(neopentylamino)quinoline-3,8-dicarbonitrile] | 113 | 7 |  | 
12 | CC(C)(C)CNc1c(C#N)cnc2c(C#N)cc(N[C@@H](c3ccc(C#N)nc3)c3cn(C4(C(F)(F)F)CC4)nn3)cc12 [Example 826, (S)-6-(((6-cyanopyridin-3-yl)(1-(1-(trifluoromethyl)cyclopropyl)-1H-1,2,3-triazol-4-yl)methyl)amino)-4-(neopentylamino)quinoline-3,8-dicarbonitrile] |  |  | 1000 | 51
13 | Cc1nc(F)ccc1[C@H](Nc1cc(C#N)c2ncc(C#N)c(NCC(C)(C)C(F)(F)F)c2c1)c1cn(C(C)(C)C)nn1 [Example 827, (S)-6-(((1-(tert-butyl)-1H-1,2,3-triazol-4-yl)(6-fluoro-2-methylpyridin-3-yl)methyl)amino)-4-((3,3,3-trifluoro-2,2-dimethylpropyl)amino)quinoline-3,8-dicarbonitrile] |  |  | 38 | 2

Further lines, results first:

Row | EC50 (TNFα; [1]) [nM] | IC50 (Human Cot; read-out: IC50 HTRF) [nM] | EC50 (TNFα; [2]) [nM] | IC50 (Human Cot; IC50 HTRF) [nM] | Compound
14 |  |  | 778 | 28 | COc1ccc([C@H](Nc2cc(Cl)c3ncc(C#N)c(NCC(C)(C)C)c3c2)c2cn(C3(C(F)(F)F)CC3)nn2)cn1 [Example 805, (S)-8-chloro-6-(((6-methoxypyridin-3-yl)(1-(1-(trifluoromethyl)cyclopropyl)-1H-1,2,3-triazol-4-yl)methyl)amino)-4-(neopentylamino)quinoline-3-carbonitrile]
15 |  |  | 28 | 3 | Cc1nnc(C2(n3cc([C@@H](Nc4cc(Cl)c5ncc(C#N)c(NCC(C)(C)C)c5c4)c4ccc(F)nc4C)nn3)CC2)o1 [Example 806, (S)-8-chloro-6-(((6-fluoro-2-methylpyridin-3-yl)(1-(1-(5-methyl-1,3,4-oxadiazol-2-yl)cyclopropyl)-1H-1,2,3-triazol-4-yl)methyl)amino)-4-(neopentylamino)quinoline-3-carbonitrile]
16 | 32 | 3 |  |  | COc1nccc2c([C@H](Nc3cc(C#N)c4ncc(C#N)c(NCC(C)(C)C)c4c3)c3cn(C4(C)CC4)nn3)cccc12 [Example 809, (S)-6-(((1-methoxylsoquinolin-5-yl)(1-(1-methylcyclopropyl)-1H-1,2,3-triazol-4-yl)methyl)amino)-4-(neopentylamino)quinoline-3,8-dicarbonitrile]
17 | 54 | 4 |  |  | COc1nccc2c([C@H](Nc3cc(C#N)c4ncc(C#N)c(NCC(C)(C)C)c4c3)c3cn(C4(C(F)F)CC4)nn3)cccc12 [Example 810, (S)-6-(((1-(1-(difluoromethyl)-cyclopropyl)-1H-1,2,3-triazol-4-yl)(1-methoxylsoquinolin-5-yl)methyl)amino)-4-(neopentylamino)quinoline-3,8-dicarbonitrile]
18 | 68 | 5 |  |  | COc1nccc2c([C@H](Nc3cc(C#N)c4ncc(C#N)c(NCC(C)(C)C)c4c3)c3cn(C4(C(F)(F)F)CC4)nn3)cccc12 [Example 812, (S)-6-(((1-methoxylsoquinolin-5-yl)(1-(1-(trifluoromethyl)cyclopropyl)-1H-1,2,3-triazol-4-yl)methyl)amino)-4-(neopentylamino)quinoline-3,8-dicarbonitrile]
19 |  |  | 16 | 2 | CC(C)(C)CNc1c(C#N)cnc2c(C#N)cc(N[C@H](c3cn(C45CC(C4)C5)nn3)c3ccc(F)c4ncccc34)cc12 [Example 814, (S)-6-(((1-(bicyclo[1.1.1]pentan-1-yl)-1H-1,2,3-triazol-4-yl)(8-fluoroquinolin-5-yl)methyl)amino)-4-(neopentylamino)quinoline-3,8-dicarbonitrile]
20 | 28 | 2 |  |  | COc1nccc2c([C@H](Nc3cc(C#N)c4ncc(C#N)c(NCC(C)(C)C(F)(F)F)c4c3)c3cn(C4(C)CC4)nn3)cccc12 [Example 819, (S)-6-(((1-methoxylsoquinolin-5-yl)(1-(1-methylcyclopropyl)-1H-1,2,3-triazol-4-yl)methyl)amino)-4-((3,3,3-trifluoro-2,2-dimethylpropyl)amino)quinoline-3,8-dicarbonitrile]
21 | 60 | 3 |  |  | COc1nccc2c([C@H](Nc3cc(C#N)c4ncc(C#N)c(NCC(C)(C)C(F)(F)F)c4c3)c3cn(C4(C(F)F)CC4)nn3)cccc12 [Example 821]
22 |  |  | 687 | 10 | CC(C)(C)CNc1c(C#N)cnc2c(C#N)cc(N[C@@H](c3ccc4nccn4c3)c3cn(C4(C(F)(F)F)CC4)nn3)cc12 [Example 822, (S)-6-((imidazo[1,2-a]pyridin-6-yl(1-(1-(trifluoromethyl)cyclopropyl)-1H-1,2,3-triazol-4-yl)methyl)amino)-4-(neopentylamino)quinoline-3,8-dicarbonitrile]
23 | 59 | 5 |  |  | COc1nccc2c([C@H](Nc3cc(C#N)c4ncc(C#N)c(NCC(C)(C)C)c4c3)c3cn([C@@H](C)CF)nn3)cccc12 [Example 824, 6-(((S)-(1-((S)-1-fluoropropan-2-yl)-1H-1,2,3-triazol-4-yl)(1-methoxylsoquinolin-5-yl)methyl)amino)-4-(neopentylamino)quinoline-3,8-dicarbonitrile]
